Patent US20240052109A1, “POLYSILOXANE VINYLIC MONOMERS AND USES THEREOF” (Alcon Inc., priority 2022, published 2024)

Experiment: Solubility of PDMS vinylic monomer in 1-PrOH:Water mixtures
Format: physicochemical
Details: 50-60 mg sample, stirred at room temperature
Protocol: The solubility of quaternium ammonium containing PDMS vinylic monomer prepared in Example 2 is evaluated in 1-PrOH:Water mixtures. Typically, 50-60 mg of the sample is combined with a selected solvent system and it is stirred/agitated at room temperature. After few minutes compatibility is evaluated. For comparison, the solubilities of three reference materials are also evaluated. The three reference material are: methacryloxypropyl- and n-butyl-terminated polydimiethylsiloxane (D6, Mn=700-800 g/mol) (Ref. 1); methacryloxypropyl- and n-butyl-terminated polydimiethylsiloxane (D9, Mn=900-1,000 g/mol) (Ref. 2); and methyl- and 2-[4-(chloromethyl)phenyl]ethyl-terminated polydimethylsiloxane (Ref. 3).

Compound	Solubility (compatibility) in 1-PrOH:Water (1-PrOH:Water 0:100)	Solubility (compatibility) in 1-PrOH:Water (1-PrOH:Water 20:80)	Solubility (compatibility) in 1-PrOH:Water (1-PrOH:Water 40:60)	Solubility (compatibility) in 1-PrOH:Water (1-PrOH:Water 60:40)	Solubility (compatibility) in 1-PrOH:Water (1-PrOH:Water 80:20)	Solubility (compatibility) in 1-PrOH:Water (1-PrOH:Water 100:0)
C=CC(=O)NCCC[N+](C)(C)Cc1ccc(CC[Si](C)(C)O[Si](C)(C)O[Si](C)(C)O[Si](C)(C)O[Si](C)(C)C)cc1 [Example 2]	Hazy	Hazy	Clear	Clear	Clear	Clear
methacryloxypropyl- and n-butyl-terminated polydimiethylsiloxane [Ref. 1]	Hazy	Hazy	Hazy	Hazy	Clear	Clear
methacryloxypropyl- and n-butyl-terminated polydimiethylsiloxane [Ref. 2]	Hazy	Hazy	Hazy	Hazy	Hazy	Clear
methyl- and 2-[4-(chloromethyl)phenyl]ethyl-terminated polydimethylsiloxane [Ref. 3]	Hazy	Hazy	Hazy	Hazy	Clear	Clear
